The source of these data is patent US20030109462A1, “Novel naringenin derivatives and use thereof” (Japan Science and Technology Corporation, priority 2001, published 2003).

“Also recorded” adds a separate entry of the source.

Assay [1] deals with two species of bean weevils: azuki bean weevil (Callosobruchus chinensis) and cowpea weevil (C. maculatus). Kind of assay: Insecticidal test on artificial beans, one result stated for both bean weevil species. The class given is in vivo. As for the experimental part: Two species of bean weevils, i.e., azuki bean weevil (Callosobruchus chinensis) and cowpea weevil (C. maculatus) were employed. Cowpea weevil was obtained from Kasetsart University, Thailand, under an import license from the Plant Quarantine Office of Japan and subcultured.
(§1) These two species of bean weevils were cultured in the same way. In a 9 cm Petri dish containing 300 mungbean seeds, was placed ten adults of bean weevil and egg production was induced. After egg production, the adults were removed and cultured in a thermostatically controlled incubator at 60% humidity and 30° C. After 25 to 30 days from the egg production, the adults emerged. The emerged adults were used in the test for insecticidal activity.
(§2) To 1 g of the cotyledon powder of mungbean was added a small quantity of water to make bean-like solid material (about 0.25 g), which was freeze-dried. This material was called artificial bean (mungbean 100%) and used in the test.
(§3) The artificial beans (mungbean 100%) were placed in a 9 cm Petri dish, on which was then put the adults shortly after their emergence and eggs were laid on the artificial seeds. The culture environment was fixed at a temperature of 30° C. and a humidity of 60%. After a lapse of 25 to 30 days from the egg production, the adults normally emerged from the artificial beans (mungbean 100%). Thus, it became clear that the bean weevils can utilize the artificial beans for their egg production and emergence, and it was confirmed that the artificial beans are useful in a test of insecticidal activity for bean weevils.
(§4) One artificial seed each of artificial beans in this test was placed in a 9 cm Petri dish, on which the adults of azuki bean weevils or cowpea weevils shortly after the emergence were put and induced to lay eggs. After egg production, the adults were cultured in an incubator fixed at 30° C. and 60% humidity. The number of eggs laid on the artificial beans was recorded, and the number of the adults that emerged from the artificial beans was continuously recorded for up to 50 days after the egg production to calculate the rate of emergence. The artificial beans on which no emergence was recorded by the 50th day after eggs were laid were split with a pair of forceps and checked as to whether there was any larvae in the artificial seed. This experiment, the insecticidal test on the artificial beans, was repeated 4 times.
(§5) The value represented by the weight (g) of the artificial beans which can be prepared from the total weight of rice bean seed powder according to the minimum lethal concentration was regarded as the total activity of the rice bean seed powder. (The value derived by dividing the total weight of rice bean seed powder by the minimum lethal concentration)
(§6) Moreover, the total activity for 1 g of the rice bean seed powder was calculated as specific activity (units/g).
(§7) Insecticidal activity was observed by calculating total activity and specific activity under the same conditions and following the same procedure as in Experiment 1, except that the extract obtained in each step of purification was used in place of the seed powder of rice bean.

Assay [2] deals with cowpea weevil (C. maculatus). Kind of assay: Insecticidal test on artificial beans, cowpea weevil. As to conditions: cowpea weevils. The class given is in vivo, Callosobruchus maculatus. As for the experimental part:
as §1
To 1 g of the cotyledon powder of mungbean was added a small quantity of water to make bean-like solid material (about 0.25 g), which was freeze-dried. This material was called artificial bean (mungbean 100%) and used in the test. […]
as §4, with “After egg production, the adults were cultured in an incubator fixed at 30° C. and 60% humidity.” left out, “This experiment, the insecticidal test on the artificial beans, was repeated 4 times.” left out

Assay [3] deals with larva of giant tobacco budworm (Heliothis obsoleta Fabricius). As to conditions: cited from earlier work.
Assay [4] deals with azuki bean weevil (Callosobruchus chinensis). The experiment in a line: Insecticidal test on artificial beans, azuki bean weevil. In kind it is in vivo. As for the experimental part:
as §1, §2, §3, §4, §5, §6, §7

The mark [5] stands for this setting: Table 2, purification without silica gel, two species of bean weevils.
The mark [6] stands for this setting: Table 1, steps from silica gel chromatography on, activity to azuki bean weevils.

In assay [1] (setting [5]), `O=C1C[C@H](c2ccc(O)cc2)Oc2cc(O)c([C@@H]3O[C@H](CO)[C@@H](O)[C@H](O)[C@H]3O)c(O)c21` [6-C-β-D-glucosyl-(R)-naringenin] displayed a Specific activity of 1000.0 units/g. In assay [1] (setting [5]), the Total activity is recorded as 8.0 units. The rate of emergence entry in assay [1] (artificial beans containing 0.05%, 0.1%, or 0.2% of the 5th peak, both species) is reported as “low”; in assay [1] (artificial beans containing 0.1% of the 5th peak, two species) it was 0%; in assay [1] (artificial beans containing 0.2% of the 5th peak, two species) it was 0%. For the same compound, the “insecticidal activity (in words)” value is “insecticidal substance active to azuki bean weevils and cowpea weevils” in assay [1] (azuki bean weevils and cowpea weevils); “insecticidally active” in assay [2]. In assay [1] (concentration in artificial beans required for emergence rate 0%, both weevil species), this compound yielded a minimum lethal concentration of 0.1%.

Turning to `O=c1cc(-c2ccc(O)c(O)c2)oc2cc(O)c([C@@H]3O[C@H](CO)[C@@H](O)[C@H](O)[C@H]3O)c(O)c12` [6-C-β-D-glucosyl-luteolin], the “insecticidal effect (in words)” value in assay [3] was “insecticidal effect”.

Compound `O=C1C[C@H](c2ccc(O)cc2)Oc2c1c(O)cc(O)c2[C@@H]1O[C@H](CO)[C@@H](O)[C@H](O)[C@H]1O` [8-C-β-D-glucosyl-(R)-naringenin] registered a Specific activity in assay [4] (setting [6]) of 1000.0 units/g. This compound gave a Total activity in assay [4] (setting [6]) of 2.0 units. Besides, the rate of emergence entry in assay [4] (artificial beans containing 0.05%, 0.1%, or 0.2% of the 7th peak, azuki bean weevils) is “low”; in assay [4] (artificial beans containing 0.1% of the 7th peak), 0%; in assay [4] (artificial beans containing 0.2% of the 7th peak), 0%. For the same compound, the “insecticidal activity (in words)” value was “insecticidal substance active to azuki bean weevils; also recorded: shows insecticidal activity” in assay [4] (azuki bean weevils) and “only to azuki bean weevils” in assay [2]. The compound also showed a minimum lethal concentration in assay [4] (concentration in artificial beans required for emergence rate 0%, azuki bean weevils) of 0.1%.
